Data set [1] deals with Ca-Ski. The data set is described as follows: Cytotoxicity against human CaSki cells measured after 48 hrs by SRB assay. The class given is functional, cell-based.
For data set [2], the system named is HeLa. The data set is described as follows: Cytotoxicity against human HeLa cells measured after 48 hrs by SRB assay. The class given is functional, cell-based.
Data set [3] relates to Ca-Ski. The data set is described as follows: Cytotoxicity against human CaSki cells measured after 48 hrs by MTT assay. The format is functional, cell-based.
In data set [4] the test system is HeLa. The data set is described as follows: Cytotoxicity against human HeLa cells measured after 48 hrs by MTT assay. The format is functional, cell-based.
Data set [5] in a line: Drug excretion in rat urine. The class given is ADME, tissue-based. Conditions: read-out: Drug excretion.
A further data set concerns HeLa 229. The data set is described as follows: Cytotoxicity against human HeLa 229 cells measured after 48 hrs by MTT assay. The class given is functional, cell-based. Particulars: HeLa 229, 48 h.
In a further data set the test system is Vero. The data set is described as follows: Cytotoxicity against African green monkey Vero cells measured after 48 hrs by MTT assay. The class given is cell-based. Conditions: Chlorocebus sabaeus.
In data set [6] the test system is HeLa. The data set is described as follows: Induction of apoptosis in human HeLa cells measured at 40 mg/L after 48 hrs relative to control. The format is functional.
Data set [7] is described as follows: Drug excretion in rat bile. The format is ADME, tissue-based. Particulars: read-out: Drug excretion.
The subject of data set [8] is HeLa. The data set is described as follows: Induction of apoptosis in human HeLa cells measured at 20 mg/L after 48 hrs relative to control. The format is functional.
Data set [9] in a line: Drug excretion in rat feces. The class given is ADME, tissue-based. Conditions: faeces, read-out: Drug excretion.

pIC50: −log10 of the molar value.

Data on 35 molecules can be found in ChEMBL document CHEMBL4342440, “Potential cytotoxic and anti-metastatic effects of berberine on gynaecological cancers with drug-associated resistance” (Eur J Med Chem, 2020).

On to `COc1cc(CN2CCN(c3ccc(C)cc3C)CC2)c2cc3[n+](cc2c1O)CCc1cc2c(cc1-3)OCO2.[Cl-]`, for which the IC50 in the data set on Ca-Ski [1] was 3.41 to 6.08 µg/mL; in the data set with HeLa [2], 4.35 to 6.32 µg/mL.

As to `COc1cc(CN2CCN(c3ccc(Cl)cc3)CC2)c2cc3[n+](cc2c1O)CCc1cc2c(cc1-3)OCO2.[Cl-]`, the IC50 in the data set on Ca-Ski [3] and in the data set on HeLa [4] was under 6 µg/mL each time.

`COc1cc(CN2CCN(c3ccc(F)cc3F)CC2)c2cc3[n+](cc2c1O)CCc1cc2c(cc1-3)OCO2.[Cl-]`: the IC50 with Ca-Ski [1] was in the range of 3.41 to 6.08 µg/mL; with HeLa [2], 4.35 to 6.32 µg/mL.

Consider `COc1cc(CN2CCN(c3ccccc3Cl)CC2)c2cc3[n+](cc2c1O)CCc1cc2c(cc1-3)OCO2.[Cl-]`, for which the IC50 in the data set with Ca-Ski [3] and in the data set on HeLa [4] was under 6 µg/mL each time.

Take `COc1ccc(N2CCN(Cc3cc(OC)c(O)c4c[n+]5c(cc34)-c3cc4c(cc3CC5)OCO4)CC2)c(OC)c1.[Cl-]`: the IC50 with Ca-Ski [1] lay within 3.41 to 6.08 µg/mL; with HeLa [2], 4.35 to 6.32 µg/mL.

Take `COc1cc(CN2CCN(c3ccc(OC(F)(F)F)cc3)CC2)c2cc3[n+](cc2c1O)CCc1cc2c(cc1-3)OCO2.[Cl-]`: the IC50 in the data set with Ca-Ski [3] and in the data set on HeLa [4] was under 6 µg/mL throughout.

Turning to `COc1cc(CN2CCN(c3ccccc3F)CC2)c2cc3[n+](cc2c1O)CCc1cc2c(cc1-3)OCO2.[Cl-]`, the half-maximal inhibitory concentration (IC50) in the data set on Ca-Ski [3] and with HeLa [4] was under 6 µg/mL each time.

In the case of `COc1cc(CN2CCN(c3ccc(C)cc3)CC2)c2cc3[n+](cc2c1O)CCc1cc2c(cc1-3)OCO2.[Cl-]`, the IC50 in the data set on Ca-Ski [3] and with HeLa [4] was under 6 µg/mL each time.

On to `COc1cc(CN2CCN(c3cccc(Cl)c3)CC2)c2cc3[n+](cc2c1O)CCc1cc2c(cc1-3)OCO2.[Cl-]`, for which the IC50 with Ca-Ski [3] and with HeLa [4] was under 6 µg/mL throughout.

As for `COc1cc(CN2CCN(c3ccccc3[N+](=O)[O-])CC2)c2cc3[n+](cc2c1O)CCc1cc2c(cc1-3)OCO2.[Cl-]`, the 50% inhibitory concentration (IC50) in the data set with Ca-Ski [3] and with HeLa [4] was under 6 µg/mL throughout.

Consider `COc1cc(CN2CCN(c3ccc(C(F)(F)F)cc3)CC2)c2cc3[n+](cc2c1O)CCc1cc2c(cc1-3)OCO2.[Cl-]`, for which the half-maximal inhibitory concentration (IC50) in the data set with Ca-Ski [3] and in the data set on HeLa [4] was under 6 µg/mL each time.

`COc1cc(CN2CCN(c3ccc(F)cc3)CC2)c2cc3[n+](cc2c1O)CCc1cc2c(cc1-3)OCO2.[Cl-]`: the IC50 in the data set with Ca-Ski [3] and with HeLa [4] was under 6 µg/mL in each case.

Consider `COc1cc(CN2CCN(c3cccc(Cl)c3Cl)CC2)c2cc3[n+](cc2c1O)CCc1cc2c(cc1-3)OCO2.[Cl-]`, for which the IC50 lay in the range of 3.41 to 6.08 µg/mL with Ca-Ski [1] and 4.35 to 6.32 µg/mL with HeLa [2].

Regarding `COc1cc(CN2CCN(c3ccc([N+](=O)[O-])cc3)CC2)c2cc3[n+](cc2c1O)CCc1cc2c(cc1-3)OCO2.[Cl-]`, the IC50 in the data set on Ca-Ski [3] and in the data set with HeLa [4] was under 6 µg/mL each time.

Turning to `COc1ccc2cc3[n+](cc2c1OCCCCCNNc1nc2ccccc2s1)CCc1cc2c(cc1-3)OCO2.[Cl-]`, the values for the IC50 with Ca-Ski [1] and with HeLa [2] were 5.31 µg/mL and 5.47 µg/mL, respectively.

For the molecule `COc1ccc2nc(NCCCCCOc3c(OC)ccc4cc5[n+](cc34)CCc3cc4c(cc3-5)OCO4)sc2c1.[Cl-]`, the IC50 came out at 5.31 µg/mL with Ca-Ski [1] and 5.47 µg/mL with HeLa [2].

With `COc1cc(CN2CCN(c3ccc(Cl)c(Cl)c3)CC2)c2cc3[n+](cc2c1O)CCc1cc2c(cc1-3)OCO2.[Cl-]`, the IC50 in the data set with Ca-Ski [1] lay in the range of 3.41 to 6.08 µg/mL; in the data set with HeLa [2], 4.35 to 6.32 µg/mL.

Consider `COc1ccc2cc3[n+](cc2c1OCCCCCNc1nc2ccccc2s1)CCc1cc2c(cc1-3)OCO2.[Cl-]`, for which the 50% inhibitory concentration (IC50) in the data set on Ca-Ski [1] came out at 5.31 µg/mL; with HeLa [2], 5.47 µg/mL.

As for `COc1ccc2cc3[n+](cc2c1OCCCCCNc1nc2ccc(Cl)cc2s1)CCc1cc2c(cc1-3)OCO2.[Cl-]`, the IC50 in the data set on Ca-Ski [1] was 5.31 µg/mL; with HeLa [2] it was 5.47 µg/mL.

As to `COc1ccc2cc3[n+](cc2c1OCCCCCNc1nc2ccc(C(=O)O)cc2s1)CCc1cc2c(cc1-3)OCO2.[Cl-]`, the figures for the IC50 in the data set with Ca-Ski [1] and in the data set on HeLa [2] were 5.31 µg/mL and 5.47 µg/mL, respectively.

For `COc1cc(CN2CCN(c3cc(Cl)cc(Cl)c3)CC2)c2cc3[n+](cc2c1O)CCc1cc2c(cc1-3)OCO2.[Cl-]`, the IC50 in the data set on Ca-Ski [1] lay in the range of 3.41 to 6.08 µg/mL; in the data set with HeLa [2], 4.35 to 6.32 µg/mL.

Regarding `COc1ccc2cc3[n+](cc2c1OCCCCCNc1nc2ccc(C)cc2s1)CCc1cc2c(cc1-3)OCO2.[Cl-]`, the IC50 came out at 5.31 µg/mL in the data set with Ca-Ski [1] and 5.47 µg/mL with HeLa [2].

For `COc1ccc2cc3[n+](cc2c1OCCCCCNc1nc2ccc(C(F)(F)F)cc2s1)CCc1cc2c(cc1-3)OCO2.[Cl-]`, the IC50 came out at 5.31 µg/mL in the data set with Ca-Ski [1] and 5.47 µg/mL in the data set on HeLa [2].

`COc1cc(CN2CCN(c3cccc(C)c3C)CC2)c2cc3[n+](cc2c1O)CCc1cc2c(cc1-3)OCO2.[Cl-]`: the figures for the IC50 in the data set with Ca-Ski [1] and in the data set on HeLa [2] were 3.41 to 6.08 µg/mL and 4.35 to 6.32 µg/mL, respectively.

Take `COc1cc(CN2CCN(c3cccc(F)c3F)CC2)c2cc3[n+](cc2c1O)CCc1cc2c(cc1-3)OCO2.[Cl-]`: the IC50 in the data set on Ca-Ski [1] is 3.41 to 6.08 µg/mL; in the data set on HeLa [2], 4.35 to 6.32 µg/mL.

In the case of `COc1ccc2cc3[n+](cc2c1OCCCCCNc1nc2c(F)cc(F)cc2s1)CCc1cc2c(cc1-3)OCO2.[Cl-]`, the IC50 amounted to 5.31 µg/mL with Ca-Ski [1] and 5.47 µg/mL in the data set with HeLa [2].

For the molecule `COc1ccc2cc3[n+](cc2c1OCCCCCNc1nc2ccc(C#N)cc2s1)CCc1cc2c(cc1-3)OCO2.[Cl-]`, the values for the IC50 in the data set on Ca-Ski [1] and in the data set on HeLa [2] were 5.31 µg/mL and 5.47 µg/mL, respectively.

Take `COc1ccc2cc3[n+](cc2c1OCCCCCNc1nc2ccc(F)cc2s1)CCc1cc2c(cc1-3)OCO2.[Cl-]`: the IC50 was 5.31 µg/mL in the data set on Ca-Ski [1] and 5.47 µg/mL in the data set with HeLa [2].

As to `COc1cc(CN2CCN(c3ccc(Cl)cc3Cl)CC2)c2cc3[n+](cc2c1O)CCc1cc2c(cc1-3)OCO2.[Cl-]`, the IC50 was 3.41 to 6.08 µg/mL in the data set on Ca-Ski [1] and 4.35 to 6.32 µg/mL in the data set with HeLa [2].

As to `COc1ccc2cc3[n+](cc2c1OCCCCCNc1nc2ccc(I)cc2s1)CCc1cc2c(cc1-3)OCO2.[Cl-]`, the IC50 in the data set on Ca-Ski [1] came out at 5.31 µg/mL; in the data set with HeLa [2], 5.47 µg/mL.

For `COc1ccc2cc3[n+](cc2c1OCCCCCNc1nc2ccc(Br)cc2s1)CCc1cc2c(cc1-3)OCO2.[Cl-]`, the figures for the IC50 in the data set with Ca-Ski [1] and with HeLa [2] were 5.31 µg/mL and 5.47 µg/mL, respectively.

For the molecule `CCOc1ccc2nc(NCCCCCOc3c(OC)ccc4cc5[n+](cc34)CCc3cc4c(cc3-5)OCO4)sc2c1.[Cl-]`, the IC50 with Ca-Ski [1] was determined as 5.31 µg/mL; in the data set on HeLa [2] it was 5.47 µg/mL.

On to `COc1ccc2cc3[n+](cc2c1OCCCCCNc1nc2ccc([N+](=O)[O-])cc2s1)CCc1cc2c(cc1-3)OCO2.[Cl-]`, for which the IC50 in the data set on Ca-Ski [1] is 5.31 µg/mL; in the data set on HeLa [2], 5.47 µg/mL.

Take `COc1ccc2cc3[n+](cc2c1OC)CCc1cc2c(cc1-3)OCO2` [BERBERINE]: the dose excreted in data set [5] came out at 0.0939%; in data set [7] it was 22.8%; in data set [9], 22.7%. For the same molecule, in the data set on HeLa 229, the pIC50 is 4.37. For the same molecule, the results for the IC50 in the data set on Vero and with HeLa [4] were 71.1 µg/mL and 12.1 µg/mL, respectively. For the same molecule, the values for the Activity with HeLa [6] and with HeLa [8] were 29.6% and 16.7%, respectively.

As for `COc1c(O)ccc2cc3[n+](cc12)CCc1cc2c(cc1-3)OCO2.[Cl-]` [THALIFENDINE], in [7], the dose excreted was found to be 83%.
